This is an account of results in US9273095B2, “Antibiotic peptide and preparation method therefor and application therefor” (priority 2011, dated 2016).

Values after ≈ are worked out from the molar mass of the structure shown. Non-standard residues stand in square brackets, D forms with d. Residues, ends and D or L forms follow the SMILES beside them.

What all share (assay): microbe, parasite or virus in culture
What all share (type): cell-based

Assay [1] relates to aspergillus flavous. A digest of the protocol: (§1)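 Broth dilution in RPMI-1640 with PL-13 peptide diluted 10-fold from stock; inoculum 1-3×10^3 CFU/ml in the test. Strains activated at 60% humidity, 25 °C for aspergillus or 37 °C for candida; living and blank control wells included.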
Assay [2] relates to aspergillus fumigatus. A digest of the protocol: as §1
In assay [3] the test system is candida glabrata. Put shortly:
as §1

In assay [4] the test system is Acinetobacter calcoaceticus. How it is done:
(§2) The experimental strains are 37 standard strains preserved in lab and clinical isolated bacteria, including drug-resistant bacteria and quality-control bacteria selecting Staphylococcus aureus ATCC29213, Enterococcus faecalis ATCC29212, Escherichia coli ATCC25922, Pseudomonas aeruginosa ATCC27853 and klebsiella pneumoniae ATCC700603.
(§3) (1) Sensitivity test is conducted with two-fold agar dilution method and Denlay multipoint inoculator. Test bacteria are cultured with nutrient broth and brain heart infusion.
(§4) (2) The drug is double diluted into different concentration with MH broth after dissolved and then placed in the plate respectively.
(§5) (3) After dissolved, MH agar culture medium are injected into the plate with drug quantitatively and mixed to make the final concentration of drug are 0.03, 0.06, 0.125, . . . , 128 μg/ml respectively.
(§6) (4) After solidification of the culture medium in the plate, test bacteria (10^4CFU/point) are inoculated by multipoint inoculator and cultured for 18 hours at constant 35° C. Then observe the results.

Assay [5] relates to Enterobacter aerogenes. How it is done:
as §2, §3, §4, §5, §6

For assay [6], the system named is Enterobacter cloacae. How it is done:
as §2, §3, §4, §5, §6

Assay [7] relates to Feilaoti citrobacter. How it is done:
as §2, §3, §4, §5, §6

For assay [8], the system named is Proteus vulgaris. How it is done:
as §2, §3, §4, §5, §6

In assay [9] the test system is Salmonella typhimurium. The note with it: murium. How it is done: as §2, §3, §4, §5, §6
The test system of assay [10] is Serratia marcescens. How it is done: as §2, §3, §4, §5, §6

As for `CC(=O)N[C@H](Cc1ccccc1)C(=O)N[C@H](CCCCN)C(=O)N[C@H](CCCCN)C(=O)N[C@H](Cc1ccccc1)C(=O)N[C@H](CCCCN)C(=O)N[C@H](CCCCN)C(=O)N[C@H](CC(C)C)C(=O)N[C@H](CC(C)C)C(=O)N[C@H](CO)C(=O)N[C@H](CCCCN)C(=O)N[C@H](CC(C)C)C(=O)N[C@H](Cc1c[nH]c2ccccc12)C(=O)N[C@H](CC(N)=O)C(=O)N[C@H](Cc1c[nH]c2ccccc12)C(=O)N[C@H](CCCCN)C(N)=O` [PL-43] (Ac-[dF][dK][dK][dF][dK][dK][dL][dL][dS][dK][dL][dW][dN][dW][dK]-NH2; N-terminus and C-terminus assumed), the Minimal inhibitory concentration in [1] is more than 64 µg/mL; in assay [2], 64 µg/mL (≈ 31.4 µM); in assay [3] it was 32 µg/mL (≈ 15.7 µM). The MIC in [4] was 0.3 µM (≈ 0.611 µg/mL); in assay [5] it was 0.003 µM (≈ 0.00611 µg/mL); in assay [6], 0.03 µM (≈ 0.0611 µg/mL); in [7], 0.3 µM (≈ 0.611 µg/mL); in assay [8], 0.3 µM (≈ 0.611 µg/mL); in [9], 0.3 µM (≈ 0.611 µg/mL). In addition, in [10], the MIC stood at 0.3 µM (≈ 0.611 µg/mL).
